In PubChem BioAssay (NCI):
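Cultured in 96-well plates, cells were exposed to test compound for 48 hours across five concentrations. The concentration for full growth arrest is given as TGI.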

Key:
Test in all cases: NCI tumour cell line growth inhibition, 48 h
[1] = test system: RPMI-8226 leukemia
[2] = test system: LXFL 529 NSCLC
[3] = test system: HCT-15 colon
[4] = test system: SR leukemia
[5] = test system: HOP-62 NSCLC
[6] = test system: NCI-H522 lung
[7] = test system: NCI-H23 lung
[8] = test system: SK-MEL-5 melanoma
[9] = test system: MOLT-4 leukemia
[10] = test system: A549 NSCLC
[11] = test system: ACHN renal
[12] = test system: HT29 colon
[13] = test system: SN12C renal
[14] = test system: MDA-MB-231 breast
[15] = test system: UACC-62 melanoma
[16] = test system: CAKI-1 renal
[17] = test system: SNB-75 CNS
[18] = test system: PC-3 prostate
[19] = test system: HOP-92 NSCLC
[20] = test system: SF-539 CNS

Row | Compound | TGI [1] | TGI [2] | TGI [3] | TGI [4] | TGI [5] | TGI [6] | TGI [7] | TGI [8] | TGI [9] | TGI [10] | TGI [11] | TGI [12] | TGI [13] | TGI [14] | TGI [15] | TGI [16] | TGI [17] | TGI [18] | TGI [19] | TGI [20]
1 | Nc1nc(SCc2ccc([N+](=O)[O-])cc2)nc2c1ncn2C1OC(CO)C(O)C1O (stereo not drawn) | > 100 µM | > 100 µM | > 100 µM | > 100 µM | > 100 µM | > 100 µM | > 100 µM | > 100 µM | > 100 µM | > 100 µM | > 100 µM | > 100 µM | > 100 µM | – | – | – | – | – | – | –
2 | Cc1cccc(CP(Cc2cccc(C)c2)CC2(Cp3c4ccccc4c4ccccc43)COC2)c1 | > 62.5 µM | – | > 100 µM | > 94.4 µM | > 100 µM | > 85.8 µM | > 100 µM | 13.4 µM | 37.8 µM | > 100 µM | > 100 µM | > 100 µM | > 31.6 µM | > 37 µM | > 100 µM | > 76.5 µM | > 100 µM | > 100 µM | > 100 µM | > 100 µM
3 | O=S(=O)(O)C(=Nc1cccc(Cc2ccccc2)c1)Nc1cccc(Cc2ccccc2)c1 | 83.1 µM | – | 35.2 µM | 69.7 µM | > 100 µM | 29.4 µM | 31.9 µM | 32.4 µM | 83.4 µM | 51.9 µM | 38.7 µM | 34.5 µM | 37.2 µM | 38.2 µM | 30.9 µM | > 100 µM | 30.6 µM | 35.1 µM | 28.6 µM | 34.7 µM
4 | O=C(CCCN1CCC2(CC1)CC(=O)N(N1CCCCCC1)C2=O)c1ccccc1 | > 100 µM | – | > 100 µM | > 100 µM | > 100 µM | > 100 µM | > 100 µM | > 100 µM | > 100 µM | > 100 µM | > 100 µM | > 100 µM | > 100 µM | > 100 µM | > 100 µM | > 100 µM | > 100 µM | > 100 µM | > 100 µM | > 100 µM
5 | Brc1cc(CCOC2CCCCO2)c(-c2sccc2CCOC2CCCCO2)s1 (stereo not drawn) | > 100 µM | – | > 100 µM | 49.1 µM | > 100 µM | > 69.6 µM | > 100 µM | > 100 µM | > 61.3 µM | > 100 µM | > 100 µM | > 100 µM | > 100 µM | > 100 µM | > 100 µM | > 100 µM | > 100 µM | > 100 µM | > 100 µM | > 100 µM
6 | Cc1ccc(N2C(=O)CS/C2=C(\C#N)c2nc3ccccc3[nH]2)cc1 | > 100 µM | > 100 µM | > 100 µM | > 100 µM | > 100 µM | > 100 µM | > 100 µM | > 100 µM | > 100 µM | > 100 µM | > 100 µM | – | > 100 µM | – | 82.7 µM | > 100 µM | > 100 µM | – | > 100 µM | > 100 µM
7 | COc1cc(OC)nc(-n2c(N)c(C#N)c3ccc([N+](=O)[O-])cc3c2=O)n1 | > 100 µM | – | > 100 µM | > 100 µM | > 100 µM | 55.4 µM | > 100 µM | > 100 µM | > 100 µM | > 100 µM | > 100 µM | > 100 µM | > 100 µM | > 100 µM | > 100 µM | > 100 µM | > 100 µM | > 100 µM | > 100 µM | > 100 µM
8 | CCC12CCCN(Cc3ccccc3)C1c1c(n(C)c3ccccc13)C(C(=O)OC)C2 (stereo not drawn) | > 239 µM | > 239 µM | > 239 µM | > 239 µM | > 239 µM | 127 µM | > 239 µM | 97.1 µM | > 239 µM | > 239 µM | > 239 µM | > 239 µM | > 239 µM | – | > 239 µM | > 239 µM | – | – | > 239 µM | > 239 µM
9 | CCOC(=O)/C=C/n1c2ccccc2c(=O)c2ccccc21 | > 100 µM | > 100 µM | > 100 µM | > 100 µM | > 100 µM | > 100 µM | > 100 µM | – | > 100 µM | > 100 µM | > 100 µM | > 100 µM | > 100 µM | – | > 100 µM | > 100 µM | – | – | – | > 100 µM
10 | CCOC(=O)c1nc2ccccc2nc1NCc1cc(OC)c(OC)c(OC)c1 | > 100 µM | – | > 100 µM | > 100 µM | > 100 µM | > 100 µM | > 100 µM | > 100 µM | > 100 µM | > 100 µM | > 100 µM | > 100 µM | > 100 µM | > 100 µM | > 100 µM | > 100 µM | > 100 µM | > 100 µM | > 100 µM | > 100 µM
11 | CC(C)(C)OC(=O)N1CCC(C(=O)O)CC1 | > 100 µM | – | > 100 µM | > 100 µM | > 100 µM | > 100 µM | > 100 µM | > 100 µM | > 100 µM | > 100 µM | > 100 µM | > 100 µM | > 100 µM | > 100 µM | > 100 µM | > 100 µM | > 100 µM | > 100 µM | > 100 µM | > 100 µM
12 | CN1c2ccccc2N(C(=O)c2ccc(Cl)cc2)C(CC(=O)O)c2cccn21 (stereo not drawn) | > 100 µM | > 100 µM | > 100 µM | – | > 100 µM | > 100 µM | > 100 µM | > 100 µM | > 100 µM | > 100 µM | > 100 µM | > 100 µM | > 100 µM | – | > 100 µM | > 100 µM | > 100 µM | – | > 100 µM | > 100 µM
13 | C=CCC(N(C)C(=O)[C@H](Cc1ccccc1)NC(=O)OCc1ccccc1)P(=O)(Oc1ccccc1)Oc1ccccc1 (stereo partly drawn) | > 100 µM | > 100 µM | – | > 100 µM | > 100 µM | > 100 µM | > 100 µM | – | > 100 µM | > 100 µM | > 100 µM | > 100 µM | > 100 µM | – | > 100 µM | – | > 100 µM | – | > 100 µM | > 100 µM
14 | Cn1c2ccc3cc2c(=S)c2cc(ccc21)OCCOCCOCCOCCOCCO3 | > 10 µM | – | > 10 µM | > 10 µM | > 10 µM | > 10 µM | > 10 µM | > 10 µM | > 10 µM | > 10 µM | > 10 µM | > 10 µM | > 10 µM | > 10 µM | > 10 µM | > 10 µM | > 10 µM | > 10 µM | > 10 µM | > 10 µM
15 | C=CCc1cccc2cc(C(=O)Nc3ccccc3)c(=N)oc12 | > 100 µM | – | > 100 µM | > 100 µM | > 100 µM | > 100 µM | > 100 µM | > 100 µM | > 100 µM | > 100 µM | > 100 µM | > 100 µM | > 100 µM | > 100 µM | > 100 µM | > 100 µM | > 100 µM | > 100 µM | > 100 µM | > 100 µM
16 | Cc1nn(C(=O)c2ccc(Cl)cc2)c2c1C(c1ccccc1[N+](=O)[O-])SC(N)=N2 (stereo not drawn) | > 10 µM | – | > 10 µM | > 10 µM | > 10 µM | > 10 µM | > 10 µM | > 10 µM | > 10 µM | > 10 µM | > 10 µM | > 10 µM | > 10 µM | > 10 µM | > 10 µM | > 10 µM | > 10 µM | > 10 µM | > 10 µM | > 10 µM
17 | CCOC(=O)c1cn2c(n1)sc1c(Cl)c(Cl)ccc12 | > 100 µM | – | > 100 µM | > 55.2 µM | > 51.3 µM | 43.4 µM | > 100 µM | 65.7 µM | > 40 µM | > 100 µM | > 100 µM | > 45.6 µM | 39 µM | > 100 µM | > 100 µM | 65.3 µM | 73.1 µM | > 100 µM | > 100 µM | 21.4 µM
18 | COC(=O)CC1NC(=O)[C@@H]1C(C)O (stereo partly drawn) | > 100 µM | > 100 µM | > 100 µM | > 100 µM | > 100 µM | – | – | > 100 µM | > 100 µM | > 100 µM | > 100 µM | > 100 µM | > 100 µM | – | > 100 µM | – | > 100 µM | – | – | > 100 µM
19 | CC1CN(c2ccc(Cl)cc2)CC(C)OC(=O)O1 (stereo not drawn) | > 100 µM | > 100 µM | > 100 µM | > 100 µM | > 100 µM | > 100 µM | > 100 µM | > 100 µM | – | > 100 µM | > 100 µM | > 100 µM | > 100 µM | – | > 100 µM | > 100 µM | > 100 µM | – | > 100 µM | > 100 µM
20 | Clc1cc(Cl)cc(C=NC23CC4CC(CC(C4)C2)C3)c1 | > 10 µM | – | > 10 µM | > 10 µM | > 10 µM | > 10 µM | > 10 µM | > 10 µM | > 10 µM | > 10 µM | > 10 µM | > 10 µM | > 10 µM | > 10 µM | > 10 µM | > 10 µM | > 10 µM | > 10 µM | > 10 µM | > 10 µM
